Measurements reported in patent publication US20110256240A1, “Combination Therapy” (priority 2004, published 2011).

Test system: range of tumour models
Experiment: anti-tumour activity in a range of models
Type: in vivo
Details: once-daily oral administration

For `COc1cc2c(Oc3ccc4[nH]c(C)cc4c3F)ncnc2cc1OCCCN1CCCC1` [AZD2171, 4-(4-fluoro-2-methyl-1H-indol-5-yloxy)-6-methoxy-7-(3-(pyrrolidin-1-yl)propoxy)quinazoline], the “anti-tumour activity in a range of models” value was “broad-spectrum anti-tumour activity”.
